Results: patent publication EP0656889B1, “9-CHLOROPROSTAGLANDIN ESTERS AND AMIDES AND THEIR USE IN THE PREPARATION OF DRUGS” (SCHERING AKTIENGESELLSCHAFT, priority 1992, dated 1994)

Key:
haarlosen Ratten = assay: Measurement of skin blood flow (non-invasive laser Doppler method) after topical application, Beispiel 13; type: in vivo, Ratten (Wister; hairless ); settings: 4 h after local application on abdominal skin of anaesthetised (Urethan) hairless rats, solvent Isopropylmyristat in Ethanol 5/95 v/v
Description: (§1) Messung der Hautdurchblutung
Die Hautdurchblutung wurde mit der nichtinvasiven Laser-Doppler Methode bestimmt. Die Messsungen wurden 4 Stunden nach der lokalen Applikation der Substanzen auf der Bauchhaut von narkotisierten ( Urethan ) haarlosen Ratten* durchgeführt. Als Lösungsmittel wurde Isopropylmyristat in Ethanol verwendet ( 5/95; v/v ).
* Für diese Untersuchungen wurden weibliche Ratten (Wister; hairless ) mit einem Körpergewicht von 200-250g verwendet.

Hairless Ratten = assay: Measurement of skin blood flow (laser Doppler flowmeter) after topical application, Beispiel 12; type: in vivo; settings: topical on abdomen of anaesthetised female hairless rats, solvent 5% Isopropylmyristat in Ethanol, measured 2 and 4 h after application (time not given)
Method: as §1
Hairless Ratten (weiblich) werden gewogen (200-250g), mit 0,5ml 25% Urethan in 0,9% NaCl /100g/kg (2/3 i.p., 1/3 s.c.) narkotisiert und auf eine vorgeheizte Wärmeplatte der Fa. Jowitherm gelegt.
Auf dem Abdomen wird eine kreisförmige Fläche von 34mm Durchmesser ca. 2cm unterhalb der Sternumspitze markiert. Pro Tier wird eine Testsubstanz appliziert, die mit dem Randomisierungsprogramm RDRK zugeordnet wurde. Als Lösungsmittel wird 5% Isopropylmyristat in Ethanol verwendet. […] der jeweiligen Testlösung werden mit einer Eppendorf-Pipette gleichmäßig aufgetragen. Danach wird die behandelte Haut nochmals in drei Meßflächen von jeweils 18mm Druchmesser unterteilt und markiert. Die Hautdurchblutung wird 2 und 4 Stunden ( und gegebenenfalls 6 Stunden) nach der Applikation mit einem Laser Doppler Flowmeter (Firma Perimed) gemessen. Es werden an jedem Tier Dreifachmessungen an den markierten Stellen durchgeführt.

[1] = applied concentration 0,001 Prozent
[2] = applied concentration 0,003 Prozent

| SMILES | Steigerung der Hautdurchblutung in Prozent (haarlosen Ratten; [1]) | Steigerung der Hautdurchblutung in Prozent (haarlosen Ratten; [2]) | Steigerung der Hautdurchblutung in Prozent (Hairless Ratten; [1]) | Steigerung der Hautdurchblutung in Prozent (Hairless Ratten; [2]) |
| --- | --- | --- | --- | --- |
| CC(C)OC(=O)CCC/C=C\C[C@@H]1[C@@H](/C=C/[C@@H](O)C2CCCCC2)[C@H](O)C[C@H]1Cl [Beispiel 7, (5Z,13E)-(9R,11R,15S)-9-Chlor-15-cydohexyl-11,15-dihydroxy-16,17,18,19,20-pentanor-5,13-prostadiensäureisopropylester] | 93 Prozent | 183 Prozent |  |  |
| CCOC(=O)COC/C=C\C[C@@H]1[C@@H](/C=C/[C@@H](O)C2CCCCC2)[C@H](O)C[C@H]1Cl [Beispiel 9, (5Z,13E)-(9R,11R,15S)-9-Chlor-3-oxa-15-cyclohexyl-11,15-dihydroxy-16,17,18,19,20-pentanor-5,13-prostadiensäureethylester] | 200 Prozent | 325 Prozent |  |  |
| O=C(CCC/C=C\C[C@@H]1[C@@H](/C=C/[C@@H](O)C2CCCCC2)[C@H](O)C[C@H]1Cl)OCC(=O)c1ccccc1 [Beispiel 1, (5Z,13E)-(9R,11R,15S)-9-Chlor-15-cyclohexyl-11,15-dihydroxy-16,17,18,19,20-pentanor-5,13-prostadiensäurephenacylester] |  |  | 50 Prozent | 160 Prozent |
| O=C(COC/C=C\C[C@@H]1[C@@H](/C=C/[C@@H](O)C2CCCCC2)[C@H](O)C[C@H]1Cl)OCC(=O)c1ccccc1 [Beispiel 3, (5Z,13E)-(9R,11R,15S)-9-Chlor-3-oxa-15-cyclohexyl-11,15-dihydroxy-16,17,18,19,20-pentanor-5,13-prostadiensäurephenacylester] |  |  | 139 Prozent | 146 Prozent |
| CC(C)OC(=O)COC/C=C\C[C@@H]1[C@@H](/C=C/[C@@H](O)C2CCCCC2)[C@H](O)C[C@H]1Cl [Beispiel 10, (5Z,13E)-(9R,11R,15S)-9-Chlor-3-oxa-15-cyclohexyl-11,15-dihydroxy-16,17,18,19,20-pentanor-5,13-prostadiensäureisopropylester] | 232 Prozent | 307 Prozent |  |  |
| CCOC(=O)CCC/C=C\C[C@@H]1[C@@H](/C=C/[C@@H](O)C2CCCCC2)[C@H](O)C[C@H]1Cl [Beispiel 6, (5Z,13E)-(9R,11R,15S)-9-Chlor-15-cyclohexyl-11,15-dihydroxy-16,17,18,19,20-pentanor-5,13-prostadiensäureethylester] | 115 Prozent | 197 Prozent |  |  |
